Test results as given in the NIST ThermoML archive (doi:10.1021/je600578u).
Numbers after ± are expanded uncertainties.

How the values were obtained:
[1] = refractive index (Na D-line) (dimensionless); details: 298.15 K; 101.33 kPa; Liquid; Standard Abbe refractometry
[2] = 298.15 K; 101.33 kPa; Liquid

| refractive index [1] | mass density [2] | Structure (SMILES) |
| --- | --- | --- |
| 1.49764 ± 0.00054 | 873.57 ± 0.96 kg/m3 | c1ccccc1 [benzene] |
| 1.35928 ± 0.00052 | 785.27 ± 0.98 kg/m3 | CCO [ethanol] |
